Measurements reported in patent US10376513B2, “Heterocyclylamines as PI3K inhibitors” (Incyte Corporation, priority 2011, dated 2019).

The compounds below were run against PI3Kδ (p110δ/p85α) (Homo sapiens (Human), UniProt O00329) (assay: PI3Kδ scintillation proximity assay (Example A3)). Conditions: 20 μM ATP, 4 nM PI3Kδ, read-out: PI3Kδ SPA IC50.
Assay type: biochemical
Method: [γ-^33P]ATP (10 mCi/mL) was purchased from Perkin-Elmer (Waltham, Mass.). […] PI3Kδ (p110δ/p85α) was purchased from Millipore (Bedford, Mass.). ATP, MgCl2, DTT, EDTA, MOPS and CHAPS were purchased from Sigma-Aldrich (St. Louis, Mo.). Wheat Germ Agglutinin (WGA) YSi SPA Scintillation Beads was purchased from GE healthcare life sciences (Piscataway, N.J.).
The kinase reaction was conducted in polystyrene 384-well matrix white plate from Thermo Fisher Scientific in a final volume of 25 μL. Inhibitors were first diluted serially in DMSO and added to the plate wells before the addition of other reaction components. The final concentration of DMSO in the assay was 0.5%. The PI3K assays were carried out at room temperature in 20 mM MOPS, pH 6.7, 10 mM MgCl2, 5 mM DTT and CHAPS 0.03%. Reactions were initiated by the addition of ATP, the final reaction mixture consisted of 20 μM PIP2, 20 μM ATP, 0.2 μCi [γ-^33P] ATP, 4 nM PI3Kδ. […] 25 mM EDTA, 400 μM ATP. The final concentration of SPA beads was 1.0 mg/mL. After the plate sealing, plates were shaken overnight at room temperature and centrifuged at 1800 rpm for 10 minutes, the radioactivity of the product was determined by scintillation counting on Topcount (Perkin-Elmer). IC50 determination was performed by fitting the curve of percent control activity versus the log of the inhibitor concentration using the GraphPad Prism 3.0 software.

Sequence of PI3Kδ (p110δ/p85α) (O00329 whole entry, species assumed): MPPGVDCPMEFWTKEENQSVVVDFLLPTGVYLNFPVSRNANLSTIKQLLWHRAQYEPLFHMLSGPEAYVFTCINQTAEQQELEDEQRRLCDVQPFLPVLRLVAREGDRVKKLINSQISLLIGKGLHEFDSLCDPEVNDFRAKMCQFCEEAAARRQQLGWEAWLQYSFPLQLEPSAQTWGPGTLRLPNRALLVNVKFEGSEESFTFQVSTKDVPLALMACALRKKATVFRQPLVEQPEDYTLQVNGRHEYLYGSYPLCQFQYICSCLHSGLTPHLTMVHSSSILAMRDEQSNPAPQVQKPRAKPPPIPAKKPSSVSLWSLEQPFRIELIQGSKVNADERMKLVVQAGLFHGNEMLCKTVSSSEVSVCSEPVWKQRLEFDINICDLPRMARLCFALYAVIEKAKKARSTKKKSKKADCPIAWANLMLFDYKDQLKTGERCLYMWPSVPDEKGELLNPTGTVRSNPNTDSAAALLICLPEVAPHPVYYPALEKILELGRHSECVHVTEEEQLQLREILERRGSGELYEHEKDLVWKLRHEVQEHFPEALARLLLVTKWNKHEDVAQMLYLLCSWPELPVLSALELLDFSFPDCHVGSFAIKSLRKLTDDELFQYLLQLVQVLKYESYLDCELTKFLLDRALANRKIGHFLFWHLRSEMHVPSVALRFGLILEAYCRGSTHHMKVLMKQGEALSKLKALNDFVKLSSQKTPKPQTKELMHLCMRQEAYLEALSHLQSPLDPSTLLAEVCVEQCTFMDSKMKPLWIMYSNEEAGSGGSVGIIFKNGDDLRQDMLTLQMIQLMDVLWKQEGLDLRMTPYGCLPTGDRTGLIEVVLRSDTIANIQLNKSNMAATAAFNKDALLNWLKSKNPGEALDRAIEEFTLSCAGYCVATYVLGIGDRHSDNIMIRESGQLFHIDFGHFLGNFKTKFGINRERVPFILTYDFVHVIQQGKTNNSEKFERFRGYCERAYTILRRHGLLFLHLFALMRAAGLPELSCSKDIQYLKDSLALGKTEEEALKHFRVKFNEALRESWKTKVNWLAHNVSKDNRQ
Sequence of PI3Kδ (p110δ/p85α) (P27986 whole entry partner, species assumed): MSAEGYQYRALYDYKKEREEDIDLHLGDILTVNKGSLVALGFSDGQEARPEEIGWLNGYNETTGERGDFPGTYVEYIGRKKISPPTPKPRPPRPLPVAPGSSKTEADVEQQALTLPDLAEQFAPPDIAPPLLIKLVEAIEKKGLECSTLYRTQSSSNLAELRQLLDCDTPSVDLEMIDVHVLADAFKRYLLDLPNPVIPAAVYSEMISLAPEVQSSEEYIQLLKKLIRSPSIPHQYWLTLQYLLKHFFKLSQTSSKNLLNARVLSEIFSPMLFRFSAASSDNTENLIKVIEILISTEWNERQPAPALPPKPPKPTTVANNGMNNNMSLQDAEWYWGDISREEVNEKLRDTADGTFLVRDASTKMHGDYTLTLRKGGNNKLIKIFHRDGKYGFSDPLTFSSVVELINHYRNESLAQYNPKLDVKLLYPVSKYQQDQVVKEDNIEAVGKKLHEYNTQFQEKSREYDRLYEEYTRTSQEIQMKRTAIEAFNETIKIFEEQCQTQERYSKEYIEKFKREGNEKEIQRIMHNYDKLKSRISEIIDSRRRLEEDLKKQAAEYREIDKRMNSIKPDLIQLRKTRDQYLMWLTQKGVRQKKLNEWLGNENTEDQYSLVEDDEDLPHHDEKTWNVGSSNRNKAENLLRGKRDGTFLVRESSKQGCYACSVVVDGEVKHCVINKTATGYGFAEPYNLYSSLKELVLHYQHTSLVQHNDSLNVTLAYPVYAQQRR

Row | IC50 [nM] | Compound
1 | < 10 | COc1c(C(C)n2nc(C)c3c(N)ncnc32)cc(Cl)c(F)c1C1CN(C[C@H](C)O)C1 (single isomer, unassigned) [68 (2nd peak)]
2 | < 10 | Cc1c(Cl)cc(C(C)n2nc(C)c3c(N)ncnc32)c(OCC(F)F)c1-c1ccc(C(=O)N(C)C)nc1 (centres unmarked) [Example 189, 5-(3-(1-(4-Amino-3-methyl-1H-pyrazolo[3,4-d]pyrimidin-1-yl)ethyl)-5-chloro-2-(2,2-difluoroethoxy)-6-methylphenyl)-N,N-dimethylpicolinamide bis(2,2,2-trifluoroacetate)]
3 | < 10 | COc1c(C(C)n2nc(C)c3c(N)ncnc32)cc(Cl)c(C)c1-c1cncc(C(=O)N(C)C2CC2)c1 (centres unmarked) [Example 174, 5-(3-(1-(4-Amino-3-methyl-1H-pyrazolo[3,4-d]pyrimidin-1-yl)ethyl)-5-chloro-2-methoxy-6-methylphenyl)-N-cyclopropyl-N-methylnicotinamide bis(2,2,2-trifluoroacetate)]
4 | < 10 | COc1c(C(C)n2nc(C)c3c(N)ncnc32)cc(Cl)c(C)c1CC#N (centres unmarked) [Example 194, {3-[1-(4-Amino-3-methyl-1H-pyrazolo[3,4-d]pyrimidin-1-yl)ethyl]-5-chloro-2-methoxy-6-methylphenyl}acetonitrile]
5 | < 10 | Cc1c(Cl)cc(C(C)n2nc(C)c3c(N)ncnc32)c(OCC2CC2)c1-c1ccc(C(=O)N(C)C)nc1 (centres unmarked) [Example 190, 5-(3-(1-(4-Amino-3-methyl-1H-pyrazolo[3,4-d]pyrimidin-1-yl)ethyl)-5-chloro-2-(cyclopropylmethoxy)-6-methylphenyl)-N,N-dimethylpicolinamide bis(2,2,2-trifluoroacetate)]

Further lines, the compound ahead of its results:

Row | Compound | IC50 [nM]
6 | COc1c(C(C)n2nc(C(F)F)c3c(N)ncnc32)cc(Cl)c(C)c1-c1ccc(C(=O)N(C)C)nc1 (centres unmarked) [Example 191, 5-(3-{1-[4-Amino-3-(difluoromethyl)-1H-pyrazolo[3,4-d]pyrimidin-1-yl]ethyl}-5-chloro-2-methoxy-6-methylphenyl)-N,N-dimethylpyridine-2-carboxamide] | < 10
7 | COc1c(C(C)n2nc(C)c3c(N)ncnc32)cc(Cl)c(C)c1-c1ccc(OCCO)nc1 (centres unmarked) [Example 188, 2-(5-(3-(1-(4-Amino-3-methyl-1H-pyrazolo[3,4-d]pyrimidin-1-yl)ethyl)-5-chloro-2-methoxy-6-methylphenyl)pyridin-2-yloxy)ethanol] | < 10
8 | CCOc1c(C(C)n2nc(C)c3c(N)ncnc32)cc(Cl)c(C)c1-c1cnn(CC(N)=O)c1 (centres unmarked) [Example 203, 2-(4-(3-(1-(4-Amino-3-methyl-1H-pyrazolo[3,4-d]pyrimidin-1-yl)ethyl)-5-chloro-2-ethoxy-6-methylphenyl)-1H-pyrazol-1-yl)acetamide] | < 10
9 | CCOc1c(C(C)n2nc(C)c3c(N)ncnc32)cc(Cl)c(C)c1-c1ccc(C(=O)N(C)C)cn1 (centres unmarked) [Example 208, 6-{3-[1-(4-Amino-3-methyl-1H-pyrazolo[3,4-d]pyrimidin-1-yl)ethyl]-5-chloro-2-ethoxy-6-methylphenyl}-N,N-dimethylnicotinamide bis(trifluoroacetate)] | < 10
10 | CCOc1c(C(C)n2nc(C)c3c(N)ncnc32)cc(Cl)c(C)c1C#N (centres unmarked) [Example 211, 3-[1-(4-Amino-3-methyl-1H-pyrazolo[3,4-d]pyrimidin-1-yl)ethyl]-5-chloro-2-ethoxy-6-methylbenzonitrile] | < 10
11 | COc1c(C(C)n2nc(C)c3c(N)ncnc32)cc(Cl)c(C)c1-c1ccc(NCCO)nc1 (centres unmarked) [Example 184, 2-[(5-{3-[1-(4-Amino-3-methyl-1H-pyrazolo[3,4-d]pyrimidin-1-yl)ethyl]-5-chloro-2-methoxy-6-methylphenyl}pyridin-2-yl)amino]ethanol] | < 10
